Data set [1] can be described thus: Human liver microsome assay. It is filed as in vitro ADME. Particulars: 1 uM substrate, 0.5 mg/mL liver microsome, 2 mM NADPH, 37° C., referenced against time zero control. The procedure:
Human Liver Microsome Assay Protocol
Liver microsomal stability data were generated as follows. Substrates were incubated at 37° C. and shaken for 30 minutes in a phosphate buffered solution with human liver microsomes and the cofactor NADPH. A time zero control was similarly prepared, however with NADPH excluded. The final incubation concentrations were 1 uM substrate (0.2% DMSO), 0.5 mg/mL liver microsome, 2 mM NADPH, and 0.1 M phosphate. Reactions were quenched and proteins precipitated with the addition of 2 volume equivalents of ice cold acetonitrile containing an internal standard. Following a centrifugation step, aliquots from the quenched incubations were further diluted with 4 volume equivalents of a 50% aqueous methanol solution and then subjected to LC/MS/MS analysis for quantitation of parent substrate. Microsome stability values were calculated as the percent of substrate remaining after 30 minutes referenced against the time zero control.

The target of the next data set is human Nav1.8 (Homo sapiens (Human), UniProt Q9Y5Y9). The data set can be described thus: E-VIPR optical membrane potential assay with electrical stimulation. In kind it is cell-based. Particulars: HEK cells expressing human Nav1.8. An excerpt: E-VIPR Optical Membrane Potential Assay Method with Electrical Stimulation
Sequence of human Nav1.8 (Q9Y5Y9 whole entry): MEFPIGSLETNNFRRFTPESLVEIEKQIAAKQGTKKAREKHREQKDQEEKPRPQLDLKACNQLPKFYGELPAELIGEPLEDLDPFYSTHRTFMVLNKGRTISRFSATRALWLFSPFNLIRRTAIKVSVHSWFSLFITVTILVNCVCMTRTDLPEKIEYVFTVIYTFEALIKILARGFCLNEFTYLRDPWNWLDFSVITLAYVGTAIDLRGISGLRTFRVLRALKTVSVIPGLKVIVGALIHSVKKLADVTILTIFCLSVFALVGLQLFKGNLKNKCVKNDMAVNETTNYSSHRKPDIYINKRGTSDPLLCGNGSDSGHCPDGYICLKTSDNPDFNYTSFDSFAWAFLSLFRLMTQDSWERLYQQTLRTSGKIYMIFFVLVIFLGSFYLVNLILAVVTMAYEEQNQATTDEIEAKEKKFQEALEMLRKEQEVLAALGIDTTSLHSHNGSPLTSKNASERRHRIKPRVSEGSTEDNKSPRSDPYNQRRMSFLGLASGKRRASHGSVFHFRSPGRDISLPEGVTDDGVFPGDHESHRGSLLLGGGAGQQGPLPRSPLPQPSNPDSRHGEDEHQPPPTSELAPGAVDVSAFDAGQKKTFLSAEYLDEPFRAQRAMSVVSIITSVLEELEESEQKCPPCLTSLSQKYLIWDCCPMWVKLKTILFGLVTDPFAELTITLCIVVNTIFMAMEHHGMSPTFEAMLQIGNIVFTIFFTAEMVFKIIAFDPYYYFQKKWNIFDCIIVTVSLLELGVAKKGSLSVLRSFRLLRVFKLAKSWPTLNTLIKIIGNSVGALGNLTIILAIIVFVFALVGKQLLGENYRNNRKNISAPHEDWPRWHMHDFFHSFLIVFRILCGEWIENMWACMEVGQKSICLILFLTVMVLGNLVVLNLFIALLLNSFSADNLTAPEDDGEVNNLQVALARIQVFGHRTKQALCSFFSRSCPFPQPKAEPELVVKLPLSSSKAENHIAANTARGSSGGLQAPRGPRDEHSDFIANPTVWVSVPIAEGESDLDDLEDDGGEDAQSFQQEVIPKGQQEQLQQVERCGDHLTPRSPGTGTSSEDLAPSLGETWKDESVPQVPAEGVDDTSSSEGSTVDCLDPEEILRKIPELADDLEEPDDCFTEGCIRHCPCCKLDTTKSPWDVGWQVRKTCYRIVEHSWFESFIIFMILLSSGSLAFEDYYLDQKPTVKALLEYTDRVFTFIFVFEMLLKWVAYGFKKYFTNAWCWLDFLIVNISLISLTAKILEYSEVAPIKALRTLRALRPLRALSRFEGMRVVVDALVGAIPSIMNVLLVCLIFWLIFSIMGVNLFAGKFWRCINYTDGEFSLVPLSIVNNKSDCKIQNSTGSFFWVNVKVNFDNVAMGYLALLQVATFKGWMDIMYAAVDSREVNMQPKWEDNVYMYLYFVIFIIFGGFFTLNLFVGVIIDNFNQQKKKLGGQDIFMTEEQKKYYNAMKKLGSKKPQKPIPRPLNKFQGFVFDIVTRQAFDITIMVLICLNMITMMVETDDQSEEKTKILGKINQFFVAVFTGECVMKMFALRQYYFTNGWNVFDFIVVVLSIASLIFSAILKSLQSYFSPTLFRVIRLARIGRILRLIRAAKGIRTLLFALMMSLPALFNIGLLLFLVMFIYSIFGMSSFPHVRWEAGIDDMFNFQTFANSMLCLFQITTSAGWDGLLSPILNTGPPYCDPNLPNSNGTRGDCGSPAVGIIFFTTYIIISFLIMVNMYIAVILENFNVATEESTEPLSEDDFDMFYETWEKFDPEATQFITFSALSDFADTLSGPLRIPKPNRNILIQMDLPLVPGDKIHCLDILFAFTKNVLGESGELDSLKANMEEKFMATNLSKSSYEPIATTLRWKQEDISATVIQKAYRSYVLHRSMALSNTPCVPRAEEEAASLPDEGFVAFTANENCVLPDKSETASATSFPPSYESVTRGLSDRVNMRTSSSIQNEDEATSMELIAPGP
Sodium channels are voltage-dependent proteins that can be activated by inducing membrane voltage changes by applying electric fields. The electrical stimulation instrument and methods of use are described in Ion Channel Assay Methods PCT/US01/21652, herein incorporated by reference and are referred to as E-VIPR. The instrument comprises a microtiter plate handler, an optical system for exciting the coumarin dye while simultaneously recording the coumarin and oxonol emissions, a waveform generator, a current- or voltage-controlled amplifier, and a device for inserting electrodes in well. Under integrated computer control, this instrument passes user-programmed electrical stimulus protocols to cells within the wells of the microtiter plate.
24 hours before the assay on E-VIPR, HEK cells expressing human Nav1.8 were seeded in 384-well poly-lysine coated plates at 15,000-20,000 cells per well. HEK cells were grown in media (exact composition is specific to each cell type and NaV subtype) supplemented with 10% FBS (Fetal Bovine Serum, qualified; GibcoBRL #16140-071) and 1% Pen-Strep (Penicillin-Streptomycin; GibcoBRL #15140-122). Cells were grown in vented cap flasks, in 90% humidity and 5% CO2.
• 100 mg/mL Pluronic F-127 (Sigma #P2443), in dry DMSO • Compound Plates: 384-well round bottom plate, e.g. Corning 384-well Polypropylene Round Bottom #3656 • Cell Plates: 384-well tissue culture treated plate, e.g. Greiner #781091-1B • 10 mM DiSBAC6(3) (Aurora #00-100-010) in dry DMSO • 10 mM CC2-DMPE (Aurora #00-100-008) in dry DMSO • 200 mM ABSC1 in H20
Bath1 buffer: Glucose 10 mM (1.8 g/L), Magnesium Chloride (Anhydrous), 1 mM (0.095 g/L), Calcium Chloride, 2 mM (0.222 g/L), HEPES 10 mM (2.38 g/L), Potassium Chloride, 4.5 mM (0.335 g/L), Sodium Chloride 160 mM (9.35 g/L).
Hexyl Dye Solution: Bath1 Buffer+0.5% β-cyclodextrin (make this prior to use, Sigma #C4767), 8 μM CC2-DMPE+2.5 μM DiSBAC6(3). To make the solution Added volume of 10% Pluronic F127 stock equal to volumes of CC2-DMPE+DiSBAC6(3). The order of preparation was first mix Pluronic and CC2-DMPE, then added DiSBAC6(3) while vortexing, then added Bath1+β-Cyclodextrin.
1) Pre-spotted compounds (in neat DMSO) into compound plates. Vehicle control (neat DMSO), the positive control (20 mM DMSO stock tetracaine, 125 μM final in assay) and test compounds were added to each well at 160× desired final concentration in neat DMSO. Final compound plate volume was 80 μL (80-fold intermediate dilution from 1 μL DMSO spot; 160-fold final dilution after transfer to cell plate). Final DMSO concentration for all wells in assay was 0.625%.
2) Prepared Hexyl Dye Solution.
3) Prepared cell plates. On the day of the assay, medium was aspirated and cells were washed three times with 100 μL of Bath1 Solution, maintaining 25 μL residual volume in each well.
4) Dispensed 25 μL per well of Hexyl Dye Solution into cell plates. Incubated for 20-35 minutes at room temp or ambient conditions.
5) Dispensed 80 μL per well of Bath1 into compound plates. Acid Yellow-17 (1 mM) was added and Potassium Chloride was altered from 4.5 to 20 mM depending on the NaV subtype and assay sensitivity.
6) Washed cell plates three times with 100 μL per well of Bath1, leaving 25 μL of residual volume. Then transferred 25 uL per well from Compound Plates to Cell Plates. Incubated for 20-35 minutes at room temp/ambient condition.
7) Read Plate on E-VIPR. Used the current-controlled amplifier to deliver stimulation wave pulses for 10 seconds and a scan rate of 200 Hz. A pre-stimulus recording was performed for 0.5 seconds to obtain the un-stimulated intensities baseline. The stimulatory waveform was followed by 0.5 seconds of post-stimulation recording to examine the relaxation to the resting state.
Data was analyzed and reported as normalized ratios of emission intensities measured in the 460 nm and 580 nm channels. […]

This note sets out measurements from US11203571B2, “Sulfonamides as modulators of sodium channels” (VERTEX PHARMACEUTICALS INCORPORATED, priority 2013, dated 2021).

One may read the IC50 as the concentration that gives 50% inhibition. Low readings indicate greater potency, high ones weaker potency. Consider `NS(=O)(=O)c1cccc(NC(=O)c2ccc(C(F)(F)F)cc2Oc2ccc(F)cc2)c1` [Compound 1, 2-(4-fluorophenoxy)-N-(3-sulfamoylphenyl)-4-(trifluoromethyl)benzamide], for which the “HLM: percent unchanged after 30 min” value in data set [1] is recorded as 83%. Further, on human Nav1.8, the midpoint of inhibition, the IC50, lay at 14 nM.

Regarding `NS(=O)(=O)c1cccc(NC(=O)c2ccc(C(F)(F)F)cc2Oc2ccc(F)cc2F)c1` [Compound 2, 2-(2,4-difluorophenoxy)-N-(3-sulfamoylphenyl)-4-(trifluoromethyl)benzamide], the “HLM: percent unchanged after 30 min” value in data set [1] turned out to be 97%. At human Nav1.8, this compound came in with an IC50 of 22 nM.

In the case of `NS(=O)(=O)c1cccc(NC(=O)c2cc(C(F)(F)F)ccc2Oc2ccc(F)cc2)c1` [Compound 3, 2-(4-fluorophenoxy)-N-(3-sulfamoylphenyl)-5-(trifluoromethyl)benzamide], in data set [1], the “HLM: percent unchanged after 30 min” value was 117%. Besides, the half-inhibitory concentration (IC50) on human Nav1.8 was found to be 16 nM.

For `N#Cc1ccc(C(=O)Nc2cccc(S(N)(=O)=O)c2)c(Oc2ccc(F)cc2Cl)c1` [Compound 4, 2-(2-chloro-4-fluoro-phenoxy)-4-cyano-N-(3-sulfamoylphenyl)benzamide], the “HLM: percent unchanged after 30 min” value in data set [1] turned out to be 118%. Further, the half-maximal inhibitory concentration (IC50) at human Nav1.8 was 27 nM.

Take `NS(=O)(=O)c1cccc(NC(=O)c2cc(Cl)ccc2Oc2ccc(F)cc2)c1` [Compound 5, 5-chloro-2-(4-fluorophenoxy)-N-(3-sulfamoylphenyl)benzamide]: the “HLM: percent unchanged after 30 min” value in data set [1] was determined as 107%. On human Nav1.8, this compound had a half-inhibitory concentration (IC50) of 21 nM.

Regarding `NS(=O)(=O)c1cccc(NC(=O)c2cc(C(F)(F)F)ccc2Oc2ccc(F)cc2F)c1` [Compound 6, 2-(2,4-difluorophenoxy)-N-(3-sulfamoylphenyl)-5-(trifluoromethyl)benzamide], in data set [1], the “HLM: percent unchanged after 30 min” value was found to be 106%. For the same compound, inhibition on human Nav1.8 was half-maximal at 13 nM (IC50).

For `Cc1cc(C(=O)Nc2cccc(S(N)(=O)=O)c2)c(Oc2ccc(F)cc2)cc1Cl` [Compound 7, 4-chloro-2-(4-fluorophenoxy)-5-methyl-N-(3-sulfamoylphenyl)benzamide], in data set [1], the “HLM: percent unchanged after 30 min” value turned out to be 78%. The IC50 against human Nav1.8 was found to be 12 nM.

Turning to `NS(=O)(=O)c1cccc(NC(=O)c2ccc(Cl)cc2Oc2ccc(F)cc2Cl)c1` [Compound 8, 4-chloro-2-(2-chloro-4-fluorophenoxy)-N-(3-sulfamoylphenyl)benzamide], in data set [1], the “HLM: percent unchanged after 30 min” value was determined as 108%. The IC50 against human Nav1.8 came to 10 nM.

Turning to `Cc1cc(F)ccc1Oc1cc(C#N)ccc1C(=O)Nc1cccc(S(N)(=O)=O)c1` [Compound 9, 4-cyano-2-(4-fluoro-2-methyl-phenoxy)-N-(3-sulfamoylphenyl)benzamide], in data set [1], the “HLM: percent unchanged after 30 min” value worked out at 102%. The IC50 on human Nav1.8 stood at 28 nM.

Turning to `COc1cc(F)ccc1Oc1cc(C#N)ccc1C(=O)Nc1cccc(S(N)(=O)=O)c1` [Compound 10, 4-cyano-2-(4-fluoro-2-methoxyphenoxy)-N-(3-sulfamoylphenyl)benzamide], the “HLM: percent unchanged after 30 min” value in data set [1] came to 86%. Moreover, half-maximal inhibition at human Nav1.8 (IC50) was put at 20 nM.

On to `N#Cc1ccc(Oc2ccc(F)cc2Cl)c(C(=O)Nc2cccc(S(N)(=O)=O)c2)c1` [Compound 11, 2-(2-chloro-4-fluorophenoxy)-5-cyano-N-(3-sulfamoylphenyl)benzamide], for which, in data set [1], the “HLM: percent unchanged after 30 min” value turned out to be 89%. On human Nav1.8, this compound had a half-inhibitory concentration (IC50) of 24 nM.

Regarding `Cc1cc(F)ccc1Oc1cccc(C(F)(F)F)c1C(=O)Nc1cccc(S(N)(=O)=O)c1` [Compound 12, 2-(4-fluoro-2-methylphenoxy)-N-(3-sulfamoylphenyl)-6-(trifluoromethyl)benzamide], the “HLM: percent unchanged after 30 min” value in data set [1] is 94%. This compound had a half-inhibitory concentration (IC50) against human Nav1.8 of 9 nM.

Regarding `COc1cc(F)ccc1Oc1cccc(C(F)(F)F)c1C(=O)Nc1cccc(S(N)(=O)=O)c1` [Compound 13, 2-(4-fluoro-2-methoxyphenoxy)-N-(3-sulfamoylphenyl)-6-(trifluoromethyl)benzamide], the “HLM: percent unchanged after 30 min” value in data set [1] was 78%. This compound also showed an IC50 on human Nav1.8 of 2 nM.

In the case of `COc1cc(F)ccc1Oc1cc(C(F)(F)F)ccc1C(=O)Nc1cccc(S(N)(=O)=O)c1` [Compound 14, 2-(4-fluoro-2-methoxyphenoxy)-N-(3-sulfamoylphenyl)-4-(trifluoromethyl)benzamide], the “HLM: percent unchanged after 30 min” value in data set [1] was 83%. On human Nav1.8, this compound showed an IC50 of 5 nM.

For `COc1cc(F)ccc1Oc1cc(Cl)ccc1C(=O)Nc1cccc(S(N)(=O)=O)c1` [Compound 15, 4-chloro-2-(4-fluoro-2-methoxy-phenoxy)-N-(3-sulfamoylphenyl)benzamide], in data set [1], the “HLM: percent unchanged after 30 min” value was 81%. The compound also registered an IC50 against human Nav1.8 of 13 nM.

For `COc1cc(F)ccc1Oc1ccc(Cl)cc1C(=O)Nc1cccc(S(N)(=O)=O)c1` [Compound 16, 5-chloro-2-(4-fluoro-2-methoxyphenoxy)-N-(3-sulfamoylphenyl)benzamide], the “HLM: percent unchanged after 30 min” value in data set [1] worked out at 86%. In addition, the midpoint of inhibition at human Nav1.8, the IC50, lay at 7 nM.

For the compound `NS(=O)(=O)c1cccc(NC(=O)c2cc(Cl)ccc2Oc2ccc(F)cc2Cl)c1` [Compound 17, 5-chloro-2-(2-chloro-4-fluorophenoxy)-N-(3-sulfamoylphenyl)benzamide], the “HLM: percent unchanged after 30 min” value in data set [1] came out at 102%. For the same compound, on human Nav1.8, the IC50 came out at 5 nM.

For the compound `Cc1cc(F)ccc1Oc1cc(C(F)(F)F)ccc1C(=O)Nc1cccc(S(N)(=O)=O)c1` [Compound 18, 2-(4-fluoro-2-methylphenoxy)-N-(3-sulfamoylphenyl)-4-(trifluoromethyl)benzamide], the “HLM: percent unchanged after 30 min” value in data set [1] came out at 98%. Moreover, inhibition on human Nav1.8 was half-maximal at 7 nM (IC50).

With `Cc1cc(F)ccc1Oc1cc(Cl)ccc1C(=O)Nc1cccc(S(N)(=O)=O)c1` [Compound 19, 4-chloro-2-(4-fluoro-2-methyl-phenoxy)-N-(3-sulfamoylphenyl)benzamide], the “HLM: percent unchanged after 30 min” value in data set [1] worked out at 94%. For the same compound, the IC50 against human Nav1.8 came out at 16 nM.

For the compound `COc1ccc(Oc2cc(Cl)c(Cl)cc2C(=O)Nc2cccc(S(N)(=O)=O)c2)c(OC)c1` [Compound 76, 4,5-dichloro-2-(2,4-dimethoxyphenoxy)-N-(3-sulfamoylphenyl)benzamide], in data set [1], the “HLM: percent unchanged after 30 min” value was 58%.

`COc1cc(Cl)ccc1Oc1cc(Cl)ccc1C(=O)Nc1cccc(S(N)(=O)=O)c1` [Compound 85, 4-chloro-2-(4-chloro-2-methoxyphenoxy)-N-(3-sulfamoylphenyl)benzamide] registered an IC50 at human Nav1.8 of 15 nM. This counts as double-digit nanomolar.

As to `CC(C)Oc1ccc(Oc2cc(Cl)ccc2C(=O)Nc2cccc(S(N)(=O)=O)c2)cc1` [Compound 87, 4-chloro-2-(4-isopropoxyphenoxy)-N-(3-sulfamoylphenyl)benzamide], at human Nav1.8, half-maximal inhibition (IC50) required 29 nM. This IC50 is about 1.9-fold higher than that of the compound before.

Compound `COc1ccc(Oc2cc(C(F)(F)F)cc(C3CC3)c2C(=O)Nc2cccc(S(N)(=O)=O)c2)cc1F` [Compound 100, 2-cyclopropyl-6-(3-fluoro-4-methoxyphenoxy)-N-(3-sulfamoylphenyl)-4-(trifluoromethyl)benzamide] had an IC50 against human Nav1.8 of 18 nM.
